Assay results published in US8912209B2, “Rock inhibitors” (Amakem NV, priority 2010, dated 2014).
pIC50: −log10 of the molar value.

What was measured:
ROCK II = biological target: T1, ROCK II (Homo sapiens, UniProt O75116); experiment: ROCK II kinase inhibition, Method 1 Proqinase setup (33P radioisotopic protein kinase assay); assay type: biochemical; settings: 33P radioisotopic assay, 1 μM ATP, read-out: IC50 Meth. 1
T1 construct: purchased Proqinase
Procedure: A ^33P radioisotopic protein kinase assay is used to determine the IC50 for inhibiting ROCK II. A final 50 μl reaction cocktail, containing 60 mM HEPES-NaOH (pH 7.5), 3 mM MgCl2, 3 mM MnCl2, 3 μM Na-orthovanadate, 1.2 mM DTT, 1 μM ATP, 50 μg/ml PEG20.000, 1% (v/v) DMSO, 1 μM ATP (approx. 3×10^5 cpm ^33P-γ-ATP), the substrate (Substrate: S6 peptide—2000 ng/well) and recombinant protein kinase (0.5 nM-2.5 ng/well) is mixed on a shaker and incubated at 30° C. for 80 minutes. The reaction is stopped by the addition of 50 μl of a 2% solution of H3PO4 and mixed on a shaker. After washing twice with 200 μl of a 0.9% solution of NaCl, the dry plate is counted.

ROCKα/ROCKII = biological target: T2, ROCKα/ROCKII (Homo sapiens, UniProt O75116); experiment: ROCK inhibition, Method 2 fluorescence polarization (FP) assay, ROCK IMAP Kit; assay type: biochemical; settings: 10 μM ATP, read-out: IC50 Meth. 2
T2 construct: purchased Upstate Biotechnology 14-451
T2 sequence (O75116 whole entry): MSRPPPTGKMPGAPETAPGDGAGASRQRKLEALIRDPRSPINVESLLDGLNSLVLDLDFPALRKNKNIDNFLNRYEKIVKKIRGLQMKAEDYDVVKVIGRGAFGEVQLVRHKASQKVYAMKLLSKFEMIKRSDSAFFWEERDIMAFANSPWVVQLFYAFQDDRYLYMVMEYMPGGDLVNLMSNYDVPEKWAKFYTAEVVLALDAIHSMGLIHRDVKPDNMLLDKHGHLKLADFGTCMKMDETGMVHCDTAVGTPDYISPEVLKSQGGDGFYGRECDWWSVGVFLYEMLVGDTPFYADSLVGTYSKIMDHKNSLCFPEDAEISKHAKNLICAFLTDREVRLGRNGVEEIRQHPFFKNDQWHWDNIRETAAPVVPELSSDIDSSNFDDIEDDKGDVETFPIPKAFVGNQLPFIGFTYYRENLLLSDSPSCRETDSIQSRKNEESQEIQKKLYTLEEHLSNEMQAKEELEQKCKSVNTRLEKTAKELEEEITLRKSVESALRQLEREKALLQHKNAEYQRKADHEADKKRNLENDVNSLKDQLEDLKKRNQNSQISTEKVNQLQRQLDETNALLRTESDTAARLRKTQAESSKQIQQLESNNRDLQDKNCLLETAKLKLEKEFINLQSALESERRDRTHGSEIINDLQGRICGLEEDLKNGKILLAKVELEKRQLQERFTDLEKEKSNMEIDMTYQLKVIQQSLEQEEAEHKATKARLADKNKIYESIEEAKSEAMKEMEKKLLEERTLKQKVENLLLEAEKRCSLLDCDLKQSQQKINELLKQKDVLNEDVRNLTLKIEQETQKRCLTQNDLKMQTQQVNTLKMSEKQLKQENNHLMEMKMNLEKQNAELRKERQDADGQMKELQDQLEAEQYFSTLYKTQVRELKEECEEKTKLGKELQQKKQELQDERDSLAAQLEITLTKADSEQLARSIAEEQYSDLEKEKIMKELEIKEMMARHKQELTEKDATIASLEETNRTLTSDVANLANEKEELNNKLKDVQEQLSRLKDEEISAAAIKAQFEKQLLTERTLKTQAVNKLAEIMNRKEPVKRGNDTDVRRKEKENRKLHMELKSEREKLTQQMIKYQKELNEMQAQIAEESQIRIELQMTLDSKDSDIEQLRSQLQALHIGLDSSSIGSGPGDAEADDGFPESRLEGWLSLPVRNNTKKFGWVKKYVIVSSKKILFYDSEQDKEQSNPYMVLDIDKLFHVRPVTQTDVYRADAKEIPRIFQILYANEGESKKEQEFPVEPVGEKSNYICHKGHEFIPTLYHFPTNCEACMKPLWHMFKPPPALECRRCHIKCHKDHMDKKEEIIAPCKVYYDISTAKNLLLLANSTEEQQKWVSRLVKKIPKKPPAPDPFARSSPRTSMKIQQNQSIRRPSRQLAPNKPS
Procedure: The inhibition assays were performed with a fluorescence polarization (FP) assay using the commercially available ROCK IMAP Kit from Molecular Devices (Product ID. No. R8093), essentially in accordance with the protocol supplied by the manufacturer. […] The enzyme mix ROCKα/ROCKII was obtained from Upstate Biotechnology (Product ID No 14-451).
In summary, all compounds were screened in the wells of a 384 well plate for enzymatic inhibition with concentrations varying from 100 μM to 0.3 nM using a stepwise 3 (or 2)-fold dilution.
To perform the assay, 1 μl of a solution of the compound to be tested in DMSO (at each concentration) was added to 2 μl of a solution of the enzyme in 10 mM Tris-HCl, 10 mM MgCl2, 0.1% BSA, 0.05% NaN3, pH 7,2. The final concentration of the enzyme was 2.6 nM.
After incubating for 30 minutes at RT, 2 μl of a mixture of ATP and the protein substrate in 10 mM Tris-HCl, 10 mM MgCl2, 0.1% BSA, 0.05% NaN3, pH 7.2 was added. The final concentration of the ATP was 10 μM and final concentration of protein substrate was 0.2 μM.
After incubating for 60 minutes at RT, 12 μl of the IMAP Binding Solution (mix of the IMAP Binding Buffer A (1×) and the IMAP Binding Reagent (from the ROCK IMAP kit)) was added.
The mixture thus obtained (total volume: 17 μl) was incubated for 60 minutes at RT, upon which the fluorescence polarization was measured using an automated plate reader (Perkin Elmer, Model Envision 2100-0010 HTS) with FP filters: excitation filter FITC FP 480 and emission filters FITC FP P-pol 535 and FITC FP S-pol 535 (Perkin-Elmer). The results were fitted to a curve using the XL-Fit algorithm and IC50 values were calculated for each fitted curve, again using the XL-Fit algorithm.

T1 sequence (O75116 whole entry): as above

Compound | pIC50 (ROCK II) | pIC50 (ROCKα/ROCKII)
COC(=O)C1CCCCN1C(=O)c1cccc(-c2cc(C(=O)Nc3ccncc3)ccc2CN)c1 (centres unmarked) [Compound 122, 1-[2′-Aminomethyl-5′-(pyridin-4-ylcarbamoyl)-biphenyl-3-carbonyl]-piperidine-2-carboxylic acid methyl ester] | 5.00 to 6.00 | 
CCCOC(=O)c1cccc(-c2cc(C(=O)Nc3ccncc3)ccc2CN)c1 [Compound 10, 2′-Aminomethyl-5′-(pyridin-4-ylcarbamoyl)-biphenyl-3-carboxylic acid propyl ester] | 6.00 to 7.00 | 
NCc1ccc(C(=O)Nc2ccncc2)cc1-c1cccc(C(=O)NCCC2COC(=O)O2)c1 (centres unmarked) [Compound 113, 6-Aminomethyl-biphenyl-3,3′-dicarboxylic acid 3′-{[2-(2-oxo-[1,3]dioxolan-4-yl)-ethyl]-amide} 3-pyridin-4-ylamide] | 6.00 to 7.00 | 
CC(C)OC(=O)c1cccc(-c2cc(C(=O)Nc3ccncc3)ccc2CN)c1 [Compound 26, 2′-Aminomethyl-5′-(pyridin-4-ylcarbamoyl)-biphenyl-3-carboxylic acid isopropyl ester] | 6.00 to 7.00 | 
CCCCOC(=O)c1cccc(-c2cc(C(=O)Nc3ccncc3)ccc2CN)c1 [Compound 14, 2′-Aminomethyl-5′-(pyridin-4-ylcarbamoyl)-biphenyl-3-carboxylic acid butyl ester] | 6.00 to 7.00 | 
COCCOC(=O)c1cccc(-c2cc(C(=O)Nc3ccncc3)ccc2CN)c1 [Compound 41, 2′-Aminomethyl-5′-(pyridin-4-ylcarbamoyl)-biphenyl-3-carboxylic acid 2-methoxy-ethyl ester] | 6.00 to 7.00 | 
NCc1ccc(C(=O)Nc2ccncc2)cc1-c1cccc(C(=O)OCC2CCCC2)c1 [Compound 38, 2′-Aminomethyl-5′-(pyridin-4-ylcarbamoyl)-biphenyl-3-carboxylic acid cyclopentylmethyl ester] | 6.00 to 7.00 | 
NCc1ccc(C(=O)Nc2ccncc2)cc1-c1cccc(C(=O)NCC(N)=O)c1 [Compound 106, 6-Aminomethyl-biphenyl-3,3′-dicarboxylic acid 3′-carbamoylmethyl-amide 3-pyridin-4-ylamide] | > 7.00 | 
CCCCCOC(=O)c1cccc(-c2cc(C(=O)Nc3ccncc3)ccc2CN)c1 [Compound 15, 2′-Aminomethyl-5′-(pyridin-4-ylcarbamoyl)-biphenyl-3-carboxylic acid pentyl ester] | 6.00 to 7.00 | 
NCc1ccc(C(=O)Nc2ccncc2)cc1-c1cccc(C(=O)OC2CCCCC2)c1 [Compound 35, 2′-Aminomethyl-5′-(pyridin-4-ylcarbamoyl)-biphenyl-3-carboxylic acid cyclohexyl ester] | 6.00 to 7.00 | 
COC(=O)c1cccc(-c2cc(C(=O)Nc3ccncc3)ccc2CN)c1 [Compound 1, 2′-Aminomethyl-5′-(pyridin-4-ylcarbamoyl)-biphenyl-3-carboxylic acid methyl ester] | > 7.00 | 
COc1cccc(OC)c1OC(=O)c1cccc(-c2cc(C(=O)Nc3ccncc3)ccc2C(C)N)c1 (centres unmarked) [Compound 74, 2′-(1-Amino-ethyl)-5′-(pyridin-4-ylcarbamoyl)-biphenyl-3-carboxylic acid 2,6-dimethoxy-phenyl ester] |  | 6.00 to 7.00

Now from value to compound:

pIC50 (ROCK II) | pIC50 (ROCKα/ROCKII) | Compound
6.00 to 7.00 |  | NCc1ccc(C(=O)Nc2ccncc2F)cc1-c1cccc(C(=O)OCCF)c1 [Compound 178]
5.00 to 6.00 |  | N#CCCOC(=O)Cc1cccc(-c2cc(C(=O)Nc3ccncc3F)ccc2CN)c1 [Compound 194]
6.00 to 7.00 |  | NCc1ccc(C(=O)Nc2ccncc2F)cc1-c1cccc(CC(=O)OCC23CC4CC(CC(C4)C2)C3)c1 [Compound 182]
5.00 to 6.00 |  | COC(=O)C1CCN(C(=O)c2cccc(-c3cc(C(=O)Nc4ccncc4)ccc3CN)c2)C1 (centres unmarked) [Compound 127, 1-[2′-Aminomethyl-5′-(pyridin-4-ylcarbamoyl)-biphenyl-3-carbonyl]-pyrrolidine-3-carboxylic acid methyl ester]
6.00 to 7.00 |  | NCc1ccc(C(=O)Nc2ccncc2F)cc1-c1cccc(C(=O)OCC2CCCO2)c1 (centres unmarked) [Compound 187]
